Source: article PMC10606064, “2-Aminothiazole-Flavonoid Hybrid Derivatives Binding to Tau Protein and Responsible for Antitumor Activity in Glioblastoma” (International Journal of Molecular Sciences, 2023)

Tests used:
[1] = biological target: T1, full-length human Tau (hTau40) (Homo sapiens, UniProt P10636); assay: Tau oligomerization inhibition assay (heparin-induced, thioflavin S fluorescence); type: biochemical; details: 2 µM Tau, heparin-induced, ThS; buffer A pH 6.9; 25 °C per table footnote (37 °C in method); mean ± SD; read-out: Inhibition of Aggregation IC50
T1 construct: The full-length human Tau (hTau40) was expressed in a transformed E. coli BL21 (DE3) strain; made in house; host or cells: E. coli BL21 (DE3)
T1 sequence (P10636 1-441 isoform P10636-8): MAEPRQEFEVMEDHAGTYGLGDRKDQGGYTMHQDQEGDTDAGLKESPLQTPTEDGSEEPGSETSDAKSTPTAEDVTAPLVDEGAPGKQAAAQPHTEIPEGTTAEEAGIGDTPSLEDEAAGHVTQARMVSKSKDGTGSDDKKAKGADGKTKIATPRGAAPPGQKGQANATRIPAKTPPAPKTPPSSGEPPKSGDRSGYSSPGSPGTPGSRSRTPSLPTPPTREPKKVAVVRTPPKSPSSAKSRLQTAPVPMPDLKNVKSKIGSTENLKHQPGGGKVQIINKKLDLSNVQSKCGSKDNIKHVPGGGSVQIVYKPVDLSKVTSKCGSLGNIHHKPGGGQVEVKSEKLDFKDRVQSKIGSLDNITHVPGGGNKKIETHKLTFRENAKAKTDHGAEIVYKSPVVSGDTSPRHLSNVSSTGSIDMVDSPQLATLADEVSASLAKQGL
Method: Tau oligomerization inhibition assay was performed at 37 °C in 96-well plates by monitoring thioflavin-S fluorescence at 520 nm after excitation at 440 nm using a microplate reader (POLARstar Omega system, BMG Labtech, Paris, France). The Tau oligomerization process was induced by heparin. […] The plates were shaken at 200 rpm for 10 s before each measurement. The real value of fluorescence at the plateau was determined using SciDAVis v1.23 software. Data were fitted to the SciDAVis built-in ExpGrowth equation by means of nonlinear least-squares regression analysis. Y = Y0 + A × exp(x/t)(1)
The unscaled Levenberg–Marquardt algorithm was used, and initial values were given to Y0, A, and t. The final Y0 value of the model corresponds to the plateau value. The plateau values were then used to calculate the Tau oligomerization inhibition percentage. The IC50 for each compound was calculated from the scatter plot of Tau oligomerization inhibition (in percentage) as a function of log10 of compound concentration. The IC50 value (in µM) thus corresponds to ten raised to the power of […].

U87 glioblastoma cells = assay: MTT cell viability assay, U87; type: cell-based, human; details: Homo sapiens; U87, 72 h, MTT; mean ± SEM; read-out: IC50 (metabolic activity)
Method: (§1) Cells harvested from sub-confluent monolayers were seeded at 15,000 cells per mL in a 96-well microtiter plate (Cambridge Technology, Labège, France) and cultured for 24 h under standard conditions. Standard medium was then replaced by fresh medium containing no drugs or compounds at different concentrations. The surviving cells were quantified after 72 h by the MTT assay, according to the manufacturer’s instructions. Briefly, 20 µL of 3-(4,5-diMethylThiazol-2-yl)-2,5diphenyl Tetrazolium bromide (MTT) solution at 5 mg.mL^−1 was added to cells for 3 h at 37 °C. The supernatant was discarded and replaced by 100 µL of dimethyl sulfoxide to dissolve formazan crystals. The absorbance was then read at 600 nm by spectrophotometry. For all concentrations of a given compound, cell viability was expressed as the percentage of the ratio between the mean absorbance of treated cells and the mean absorbance of untreated cells. Three independent experiments were performed, and the data were expressed as percentage of survival (using the untreated cells as 100%) and subjected to statistical analysis (n = 3). The IC50 was calculated using the Chou and Talalay method.

U251 glioblastoma cells = assay: MTT cell viability assay, U251; type: cell-based; details: Homo sapiens, U-251, U251, 72 h, mean ± SEM, read-out: IC50 (metabolic activity)
Method: as §1

U138 glioblastoma cells = assay: MTT cell viability assay, U138; type: cell-based; details: Homo sapiens, U138, 72 h, mean ± SEM, read-out: IC50 (metabolic activity)
Method: as §1

T98G glioblastoma cells = assay: MTT cell viability assay, T98G; type: cell-based; details: Homo sapiens, 72 h, mean ± SEM, read-out: IC50 (metabolic activity)
Method: as §1

[2] = tested on: SK-N-SH neuroblastoma cells; assay: MTT cell viability assay, SK-N-SH; type: cell-based; details: Homo sapiens, 72 h, mean ± SEM, read-out: IC50 (metabolic activity)
Method: as §1

[3] = tested on: Caco-2 colon adenocarcinoma cells; assay: MTT cell viability assay, Caco-2; type: cell-based; details: Homo sapiens, Caco-2 (not expressing Tau), 72 h, mean ± SEM, read-out: IC50 (metabolic activity)
Method: as §1

U87 shCTRL cells = assay: MTT cell viability assay, U87 shCTRL (expressing Tau); type: cell-based, human; details: Homo sapiens; U87 shCTRL, 72 h, MTT; mean ± SEM; read-out: IC50 (metabolic activity)
Method: (§2) All cell lines were purchased from ATCC, Gaithersburg, MD, USA. Cells from human glioblastoma (clones U87 wt, HTB-14; U118, HTB-15; U251, HTB-12; U138, HTB-16), neuroblastoma (clone SK-N-SH, HTB-11), and colorectal adenocarcinoma (clone Caco-2, HTB-37) were routinely grown at 37 °C in a humidified atmosphere containing 5% CO2. Cells were maintained by regular passages in complete media supplemented with 10% FBS, 2mM of L-glutamine, 100 U/mL of penicillin, and 50 U/mL of streptomycin (Invitrogen, Paris, France). For U87 wt, U251, U138, and SK-N-SH cells, the medium consisted of EMEM (Lonza, Levallois Perret, France). U118 and Caco-2 lines were maintained in DMEM. The U87 wt-derived lines, U87 shCTRL, and U87 shTau2 cells were continuously maintained in complete EMEM medium supplemented with 0.4 µg/mL of puromycin. The shRNA sequences and the protocol of clone selection and Tau downregulation were previously described in [20]. For Tau expression rescue, the U87 shCTRL and U87 shTau cells were seeded two days prior to experiments at 4.10^5 cells per 60 mm dish in 6 mL of complete medium. Cells were transfected using LipofectAmine 2000 according to Invitrogen instructions and 8 µg EGFP-free plasmid constructs (for U87 shCTRL) and EGFP-hTau40 plasmid constructs (for U87 shTau) were used in total. One day prior to experiments, all cells were plated in a 96-well microtiter plate to prepare for viability assays. Cells were free from mycoplasma as determined by mycoalert tests (Lonza).
as §1

U87 shTau cells = assay: MTT cell viability assay, U87 shTau (Tau-depleted); type: cell-based; details: Homo sapiens, 72 h, mean ± SEM, read-out: IC50 (metabolic activity)
Method: as §2, §1

[4] = biological target: T2, Tau protein (full-length human Tau, hTau40) (Homo sapiens, UniProt P10636); assay: Tau intrinsic fluorescence quenching, modified Stern–Volmer binding parameters; details: 5 µM Tau, buffer B pH 6.8, mean ± SD; for Kd: read-out: Equilibrium Binding Constants to Tau, KD
T2 construct: The full-length human Tau (hTau40) was expressed in a transformed E. coli BL21 (DE3) strain; made in house; host or cells: E. coli BL21 (DE3)
T2 sequence (P10636 1-441 isoform P10636-8): as above
Method: Fluorescence measurements were performed with a Horiba Jobin Yvon FluoroMax-3 spectrofluorometer. […] For experiments, the excitation wavelength was fixed at 275 nm, and the emission spectra were recorded between 280 nm and 500 nm at room temperature. The inner filter effects were corrected according to Lakowicz as follows:F = Fobs × exp{(Aem + Aex)/2}(2) where Fobs and F are the observed and corrected fluorescence values at the emission wavelength of 303 nm. Aex and Aem are the absorptions at the excitation and emission wavelengths, respectively, calculated with A = ε.l.C, in which ε is the extinction coefficient of Tau, l is the path length of cuvette, and C is Tau concentration.
The total fluorescence in the absence of quencher (F0) is given by:F0 = F0a + F0b(4) where 0 refers to the fluorescence intensity in the absence of quencher.
In the presence of quencher, we defined fa as the fraction of the initial fluorescence of Tau accessible to compounds:fa = F0a/(F0a + F0b)(5)
Therefore, the intensity of the accessible fraction (fa) is decreased according to the Stern–Volmer equation, whereas the buried fraction is not quenched, as given by:F = {F0a/(1 + K.[Q])} + F0b(6)
Then, subtraction of Equations (6) and (4) yields:ΔF = F0 − F = F0a × {K.[Q]/(1 + K.[Q])}(7)
At last, inversion of Equation (7) followed by division into Equation (4) yields:F0/ΔF = {1/(fa.K.[Q])} + 1/fa(8)
We applied this modified form of the Stern–Volmer equation to graphically determine the values of fa and K. For our experiments, we plotted F0/ΔF against 1/[Q], then we determined the fa value at the point of intersection with the y-axis, while the slope represented (faK)^−1.

Compound	IC50 [1] [µM]	IC50 (U87 glioblastoma cells) [µM]	IC50 (U251 glioblastoma cells) [µM]	IC50 (U138 glioblastoma cells) [µM]	IC50 (T98G glioblastoma cells) [µM]	IC50 [2] [µM]	IC50 [3] [µM]	IC50 (U87 shCTRL cells) [µM]	IC50 (U87 shTau cells) [µM]	Equilibrium Binding Constants to Tau, fA (Tyr accessible fraction) [4]	Kd [4] [µM]
Nc1nc2ccc3oc(-c4ccccc4)cc(=O)c3c2s1 [Compound 3]	> 100	> 100	> 100	> 100	> 100	> 100	> 100	> 100	> 100	–	–
CCOC(=O)c1ccc(-c2cc(=O)c3c(ccc4nc(N)sc43)o2)cc1 [Compound 4]	9.7 ± 0.2	> 100	> 100	> 100	> 100	> 100	> 100	> 100	> 100	0.12 ± 0.01	2.4 ± 0.8
Nc1nc2ccc3oc(-c4ccccc4F)cc(=O)c3c2s1 [Compound 6]	9 ± 0.5	2.6 ± 1.3	1.3 ± 0.4	1 ± 0.4	2.9 ± 0.7	–	–	–	–	–	–
Nc1nc2ccc3oc(-c4cccc(F)c4)cc(=O)c3c2s1 [Compound 7]	17 ± 2.9	> 100	> 100	> 100	> 100	–	–	–	–	0.21 ± 0.02	5.9 ± 1.6
Nc1nc2ccc3oc(-c4ccc(F)cc4)cc(=O)c3c2s1 [Compound 8]	15 ± 1.2	> 100	3.6 ± 1.1	10.2 ± 5	> 100	–	–	–	–	–	–
Nc1nc2ccc3oc(-c4cccc(F)c4)c(O)c(=O)c3c2s1 [Compound 10]	9.9 ± 1.1	2.6 ± 1.5	1 ± 0.4	0.9 ± 0.4	1.5 ± 0.7	–	–	1.2 ± 0.4	1.4 ± 0.6	–	6.3 ± 1.2
Nc1nc2ccc3oc(-c4ccc(F)cc4)c(O)c(=O)c3c2s1 [Compound 11]	> 100	5.1 ± 1.8	1.9 ± 0.2	5 ± 1.1	3.5 ± 1	–	–	0.3 ± 0.2	0.4 ± 0.4	0.16 ± 0.01	5.2 ± 1.8
Nc1nc2ccc3oc(-c4ccccc4)c(O)c(=O)c3c2s1 [Compound 12]	12.4 ± 1.2	4.1 ± 3.4	–	–	1.7 ± 0.9	–	–	0.6 ± 0.1	0.5 ± 0.3	0.19 ± 0.05	4.7 ± 1.3
COc1c(-c2ccccc2F)oc2ccc3nc(N)sc3c2c1=O [Compound 13]	9 ± 0.6	7.9 ± 3.4	1.7 ± 0.1	1.5 ± 0.3	9.2 ± 1.2	–	–	–	–	0.21 ± 0.02	5.4 ± 2.5
COc1c(-c2ccc(F)cc2)oc2ccc3nc(N)sc3c2c1=O [Compound 15]	6.5 ± 0.1	8.8 ± 3.3	1.9 ± 0.2	4.1 ± 1.6	11.3 ± 4.1	–	–	–	–	0.23 ± 0.03	4.1 ± 1
Nc1nc2ccc3nc(-c4cccc(Oc5ccccc5)c4)[nH]c(=O)c3c2s1 [Compound 16]	10.8 ± 2.2	> 100	> 100	> 100	> 100	–	–	> 100	> 100	0.20 ± 0.03	5 ± 2.5
Nc1nc2ccc3nc(-c4ccc(Oc5ccccc5)cc4)[nH]c(=O)c3c2s1 [Compound 17]	> 100	5.1 ± 0.8	> 100	> 100	> 100	> 100	> 100	> 100	> 100	0.14 ± 0.05	3.5 ± 1
